pIC50: −log10 of the molar value. Active and inactive are the calls of the source. The calls are words filed in the database; no cut-off is given here.
Experiments:
Assay type in all cases: functional, cell-based
HepG2 [1] = test: Hepatoprotective activity against APAP-induced toxicity in human HepG2 cells assessed as cell survival rate at 10 uM incubated for 48 hrs by MTT assay
HepG2 [2] = test: Cytotoxicity against human HepG2 cells assessed as reduction in cell viability incubated for 24 hrs by MTT assay; settings: HepG2, 24 h
A549 = test: Cytotoxicity against human A549 cells assessed as reduction in cell viability incubated for 24 hrs by MTT assay; settings: A549, 24 h

Structure (SMILES): COC(=O)[C@]12C(=O)[C@@H](C)O[C@@H]3OC(=O)[C@](C)(C[C@H]4[C@]5(CO5)C5=CC(=O)OC(C)(C)C5=CC[C@@]41C)[C@@H]32
- Activity (HepG2 [1]): Active

Structure (SMILES): C[C@H]1O[C@@H]2OC(=O)[C@]3(C)C[C@@H]4[C@](C)(C(=O)C=C5C(=CC(=O)OC5(C)C)[C@@]45CO5)[C@H](C1=O)[C@]23O
- pIC50 (HepG2 [2]): 5.25
- pIC50 (A549): 5.17

Structure (SMILES): COC(=O)[C@]12C(=O)[C@@H](C)O[C@@H]3OC(=O)[C@](C)(C[C@@H]4[C@]1(C)CC=C1C(=CC(=O)OC1(C)C)[C@@]4(C)O)[C@@H]32
- Activity (HepG2 [1]): Active

Structure (SMILES): C[C@H]1O[C@@H]2OC(=O)[C@]3(C)C[C@@H]4[C@](C)(C(=O)C=C5C(=CC(=O)OC5(C)C)[C@@]45CO5)[C@H](C1=O)[C@H]23
- Activity (HepG2 [1]): Active

Structure (SMILES): COC(=O)[C@]12C(=O)[C@@H](C)O[C@@H]3OC(=O)[C@](C)(C[C@H]4[C@]5(CO5)C5=CC(=O)OC(C)(C)[C@]56O[C@@H]6C[C@@]41C)[C@@H]32
- Activity (HepG2 [1]): Active

Structure (SMILES): C[C@H]1O[C@@H]2OC(=O)[C@]3(C)C[C@@H]4[C@@]5(C)C(=C1O[C@H]5C=C1C(=CC(=O)OC1(C)C)[C@@]41CO1)[C@]23O
- Activity (HepG2 [1]): Active

Source: ChEMBL document CHEMBL5154680, “Seco and Nor-seco Isodhilarane-Type Meroterpenoids from Penicillium purpurogenum and the Configuration Revisions of Related Compounds” (J Nat Prod, 2022)
